Data: US10681909B2, “Herbicidal triazoles” (FMC Corporation, priority 2014, dated 2020)

Tests used:
velvetleaf = experiment: Test E preemergence; type: in vivo, Abutilon theophrasti; conditions: scale 0 to 100
From the text: (§1) Seeds of plant species selected from corn (Zea mays), soybean (Glycine max), lambsquarters (Chenopodium album), poinsettia, wild (wild poinsettia, Euphorbia heterophylla), pigweed, palmer (palmer pigweed, Amaranthus palmeri), waterhemp (common waterhemp, Amaranthus rudis), surinam grass (Brachiaria decumbens), crabgrass, large (large crabgrass, Digitaria sanguinalis), crabgrass, Brazilian (Brazilian crabgrass, Digitaria horizontalis), panicum, fall (fall panicum, Panicum dichotomiflorum), foxtail, giant (giant foxtail, Setaria faberii), foxtail, green (green foxtail, Setaria viridis), goosegrass (Eleusine indica), johnsongrass (Sorghum halepense), ragweed (common ragweed, Ambrosia elatior), barnyardgrass (Echinochloa crus-galli), sandbur (southern sandbur, Cenchrus echinatus), arrowleaf sida (Sida rhombifolia), ryegrass, Italian (Italian ryegrass, Lolium multiflorum), dayflower, VA (Virginia dayflower, Commelina virginica), field bindweed (Convolvulus arvensis), cocklebur (common cocklebur, Xanthium strumarium), morningglory (Ipomoea coccinea), nightshade (eastern black nightshade, Solanum ptycanthum), kochia (Kochia scoparia), nutsedge, yellow (yellow nutsedge, Cyperus esculentus), smartweed (ladysthumb smartweed, Polygonum persicaria), velvetleaf (Abutilon theophrasti), horseweed (Conyza canadensis), and beggarticks (hairy beggarticks, Bidens pilosa), were planted into a silt loam soil and treated preemergence with test chemicals formulated in a non-phytotoxic solvent mixture which included a surfactant.
(§2) At the same time, plants from these crop and weed species and also waterhemp_RES1, (ALS & Triazine resistant common waterhemp, Amaranthus rudis), and waterhemp_RES2, (ALS & HPPD resistant common waterhemp, Amaranthus rudis) were planted in pots containing Sunshine Redi-Earth® planting medium comprising spaghnum peat moss, vermiculite, starter nutrients and dolomitic limestone were treated with postemergence applications of test chemicals formulated in the same manner. Plants ranged in height from 2 to 18 cm for postemergence treatments (1- to 4-leaf stage). Treated plants and controls were maintained in a greenhouse for 14 to 21 d, after which time all species were compared to controls and visually evaluated. Plant response ratings, summarized in Table E, are based on a scale of 0 to 100 where 0 is no effect and 100 is complete control. A dash (-) response means no test result.

corn = experiment: Test E postemergence; type: in vivo, Zea mays; conditions: scale 0 to 100
From the text: as §1, §2

crabgrass, Brazilian = experiment: Test E preemergence; type: in vivo, Digitaria horizontalis; conditions: Brazil, scale 0 to 100
From the text: as §1, §2

[1] = tested on: waterhemp_RES2 (ALS & HPPD resistant common waterhemp); experiment: Test E postemergence; type: in vivo, Amaranthus rudis; conditions: scale 0 to 100
From the text: as §1, §2

[2] = tested on: waterhemp_RES1 (ALS & Triazine resistant common waterhemp); experiment: Test E postemergence; type: in vivo, Amaranthus rudis; conditions: scale 0 to 100
From the text: as §1, §2

waterhemp = experiment: Test E postemergence; type: in vivo, Amaranthus rudis; conditions: scale 0 to 100
From the text: as §1, §2

beggarticks = experiment: Test E postemergence; type: in vivo, Bidens pilosa; conditions: scale 0 to 100
From the text: as §1, §2

goosegrass = experiment: Test E preemergence; type: in vivo, Eleusine indica; conditions: scale 0 to 100
From the text: as §1, §2

ryegrass, Italian = experiment: Test E postemergence; type: in vivo, Lolium multiflorum; conditions: scale 0 to 100
From the text: as §1, §2

chickweed = experiment: Test D postemergence; type: in vivo, Stellaria media; conditions: scale 0 to 100
From the text: (§3) Seeds of plant species selected from bluegrass (annual bluegrass, Poa annua), blackgrass (Alopecurus myosuroides), canarygrass (Phalaris minor), chickweed (common chickweed, Stellaria media), galium (catchweed bedstraw, Galium aparine), bromegrass, down (downy bromegrass, Bromus tectorum), Russian thistle (Salsola kali), field poppy (Papaver rhoeas), field violet (Viola arvensis), foxtail, green (green foxtail, Setaria viridis), deadnettle (henbit deadnettle, Lamium amplexicaule), ryegrass, Ital. (Italian ryegrass, Lolium multiflorum), kochia (Kochia scoparia), lambsquarters (Chenopodium album), oilseed rape (Brassica napus), pigweed (Amaranthus retroflexus), chamomile (scentless chamomile, Matricaria inodora), speedwell (bird's-eye speedwell, Veronica persica), barley, spring (spring barley, Hordeum vulgare), wheat, spring (spring wheat, Triticum aestivum), buckwheat, wild (wild buckwheat, Polygonum convolvulus), wild mustard (Sinapis arvensis), oat, wild (wild oat, Avena fatua), radish, wild (wild radish, Raphanus raphanistrum), […]), barley, winter (winter barley, Hordeum vulgare), and wheat, winter (winter wheat, Triticum aestivum) were planted into a silt loam soil and treated preemergence with test chemicals formulated in a non-phytotoxic solvent mixture which included a surfactant. At the same time, these species were planted in pots containing Sunshine Redi-Earth® planting medium comprising spaghnum peat moss, vermiculite, starter nutrients and dolomitic limestone and treated with postemergence applications of the test chemicals formulated in the same manner. Plants ranged in height from 2 to 18 cm (1- to 4-leaf stage). Treated plants and controls were maintained in a controlled growth environment for 14 to 21 d after which time all species were compared to controls and visually evaluated. […] A dash (-) response means no test result.

canarygrass = experiment: Test D postemergence; type: in vivo, Phalaris minor; conditions: scale 0 to 100
From the text: as §3

bromegrass, down = experiment: Test D postemergence; type: in vivo, Bromus tectorum; conditions: scale 0 to 100
From the text: as §3

foxtail, green = experiment: Test D postemergence; type: in vivo, Setaria viridis; conditions: scale 0 to 100
From the text: as §3

With `CCc1nc(-c2ccc(C(F)(F)F)cc2)nn1Cc1ccnc(C(F)(F)F)c1` [Compound 1, 4-[[5-ethyl-3-[4-(trifluoromethyl)phenyl]-1H-1,2,4-triazol-1-yl]methyl]-2-(trifluoromethyl)pyridine] the Plant response rating (velvetleaf; 16 g ai/ha) was 0, the Plant response rating (velvetleaf; 31 g ai/ha) was 10 and the Plant response rating (velvetleaf; 62 g ai/ha) was 10. For the same molecule, the Plant response rating (velvetleaf; 125 g ai/ha) was 30, the Plant response rating (velvetleaf; 250 g ai/ha) was 50 and the Plant response rating (corn; 16 g ai/ha) was 5. For the same molecule, the Plant response rating (corn; 31 g ai/ha) was 5, the Plant response rating (corn; 62 g ai/ha) was 5 and the Plant response rating (corn; 125 g ai/ha) was 10. It also gave a Plant response rating (corn; 250 g ai/ha) of 10, a Plant response rating (crabgrass, Brazilian; 62 g ai/ha) of 98 and a Plant response rating (crabgrass, Brazilian; 125 g ai/ha) of 98. The Plant response rating (crabgrass, Brazilian; 250 g ai/ha) was 100, the Plant response rating ([1]; 16 g ai/ha) was 80 and the Plant response rating ([1]; 31 g ai/ha) was 85. For the same molecule, the Plant response rating ([1]; 62 g ai/ha) was 85, the Plant response rating ([1]; 125 g ai/ha) was 90 and the Plant response rating ([1]; 250 g ai/ha) was 95. The Plant response rating ([2]; 16 g ai/ha) was 90, the Plant response rating ([2]; 31 g ai/ha) was 90 and the Plant response rating ([2]; 62 g ai/ha) was 90. The Plant response rating ([2]; 125 g ai/ha) was 95, the Plant response rating ([2]; 250 g ai/ha) was 95 and the Plant response rating (waterhemp; 16 g ai/ha) was 65. It also gave a Plant response rating (waterhemp; 31 g ai/ha) of 80, a Plant response rating (waterhemp; 62 g ai/ha) of 90 and a Plant response rating (waterhemp; 125 g ai/ha) of 95. For the same molecule, the Plant response rating (waterhemp; 250 g ai/ha) was 95, the Plant response rating (beggarticks; 16 g ai/ha) was 20 and the Plant response rating (beggarticks; 31 g ai/ha) was 40. The Plant response rating (beggarticks; 62 g ai/ha) was 40, the Plant response rating (beggarticks; 125 g ai/ha) was 50 and the Plant response rating (beggarticks; 250 g ai/ha) was 60. The Plant response rating (goosegrass; 16 g ai/ha) was 50, the Plant response rating (goosegrass; 31 g ai/ha) was 60 and the Plant response rating (goosegrass; 62 g ai/ha) was 60. It also gave a Plant response rating (goosegrass; 125 g ai/ha) of 75, a Plant response rating (goosegrass; 250 g ai/ha) of 100 and a Plant response rating (ryegrass, Italian; 16 g ai/ha) of 0. For the same molecule, the Plant response rating (ryegrass, Italian; 31 g ai/ha) was 10, the Plant response rating (ryegrass, Italian; 62 g ai/ha) was 10 and the Plant response rating (ryegrass, Italian; 125 g ai/ha) was 15. For the same molecule, the Plant response rating (ryegrass, Italian; 250 g ai/ha) was 25, the “Plant response rating: Chickweed” value (chickweed; 31 g ai/ha) was 75 and the “Plant response rating: Chickweed” value (chickweed; 62 g ai/ha) was 80. For the same molecule, the “Plant response rating: Chickweed” value (chickweed; 125 g ai/ha) was 85, the “Plant response rating: Chickweed” value (chickweed; 250 g ai/ha) was 90 and the “Plant response rating: Canarygrass” value (canarygrass; 31 g ai/ha) was 15. For the same molecule, the “Plant response rating: Canarygrass” value (canarygrass; 62 g ai/ha) was 20, the “Plant response rating: Canarygrass” value (canarygrass; 125 g ai/ha) was 35 and the “Plant response rating: Canarygrass” value (canarygrass; 250 g ai/ha) was 65. For the same molecule, the “Plant response rating: Bromegrass, Down” value (bromegrass, down; 31 g ai/ha) was 15, the “Plant response rating: Bromegrass, Down” value (bromegrass, down; 62 g ai/ha) was 20 and the “Plant response rating: Bromegrass, Down” value (bromegrass, down; 125 g ai/ha) was 25. The “Plant response rating: Bromegrass, Down” value (bromegrass, down; 250 g ai/ha) was 35, the “Plant response rating: Foxtail, Green” value (foxtail, green; 31 g ai/ha) was 25 and the “Plant response rating: Foxtail, Green” value (foxtail, green; 62 g ai/ha) was 45. For the same molecule, the “Plant response rating: Foxtail, Green” value (foxtail, green; 125 g ai/ha) was 65 and the “Plant response rating: Foxtail, Green” value (foxtail, green; 250 g ai/ha) was 75.
For `CCCc1nc(-c2ccc(F)cc2)nn1Cc1ccnc(C(F)(F)F)c1` [Compound 6, 4-[[3-(4-fluorophenyl)-5-propyl-1H-1,2,4-triazol-1-yl]methyl]-2-(trifluoromethyl)pyridine], the Plant response rating (velvetleaf; 16 g ai/ha) was 0, the Plant response rating (velvetleaf; 31 g ai/ha) was 30 and the Plant response rating (velvetleaf; 62 g ai/ha) was 40. For the same molecule, the Plant response rating (velvetleaf; 125 g ai/ha) was 50, the Plant response rating (velvetleaf; 250 g ai/ha) was 70 and the Plant response rating (crabgrass, Brazilian; 16 g ai/ha) was 75. It also gave a Plant response rating (crabgrass, Brazilian; 31 g ai/ha) of 80, a Plant response rating (crabgrass, Brazilian; 62 g ai/ha) of 100 and a Plant response rating (crabgrass, Brazilian; 125 g ai/ha) of 100. The Plant response rating (crabgrass, Brazilian; 250 g ai/ha) was 100, the Plant response rating (goosegrass; 16 g ai/ha) was 15 and the Plant response rating (goosegrass; 31 g ai/ha) was 50. It also gave a Plant response rating (goosegrass; 62 g ai/ha) of 50, a Plant response rating (goosegrass; 125 g ai/ha) of 75 and a Plant response rating (goosegrass; 250 g ai/ha) of 100.
`CCOc1nc(-c2ccc(F)cc2)nn1Cc1ccnc(C(F)(F)F)c1` [Compound 8, 4-[[5-ethoxy-3-(4-fluorophenyl)-1H-1,2,4-triazol-1-yl]methyl]-2-(trifluoromethyl)pyridine] showed a Plant response rating (velvetleaf; 62 g ai/ha) of 50, a Plant response rating (velvetleaf; 125 g ai/ha) of 98 and a Plant response rating (crabgrass, Brazilian; 62 g ai/ha) of 100. For the same molecule, the Plant response rating (crabgrass, Brazilian; 125 g ai/ha) was 100, the Plant response rating (goosegrass; 62 g ai/ha) was 100 and the Plant response rating (goosegrass; 125 g ai/ha) was 100. The “Plant response rating: Chickweed” value (chickweed; 31 g ai/ha) was 80, the “Plant response rating: Chickweed” value (chickweed; 62 g ai/ha) was 85 and the “Plant response rating: Chickweed” value (chickweed; 125 g ai/ha) was 85. For the same molecule, the “Plant response rating: Chickweed” value (chickweed; 250 g ai/ha) was 90, the “Plant response rating: Canarygrass” value (canarygrass; 31 g ai/ha) was 55 and the “Plant response rating: Canarygrass” value (canarygrass; 62 g ai/ha) was 60. The “Plant response rating: Canarygrass” value (canarygrass; 125 g ai/ha) was 65, the “Plant response rating: Canarygrass” value (canarygrass; 250 g ai/ha) was 75 and the “Plant response rating: Bromegrass, Down” value (bromegrass, down; 31 g ai/ha) was 35. The “Plant response rating: Bromegrass, Down” value (bromegrass, down; 62 g ai/ha) was 45, the “Plant response rating: Bromegrass, Down” value (bromegrass, down; 125 g ai/ha) was 55 and the “Plant response rating: Bromegrass, Down” value (bromegrass, down; 250 g ai/ha) was 60. For the same molecule, the “Plant response rating: Foxtail, Green” value (foxtail, green; 31 g ai/ha) was 40, the “Plant response rating: Foxtail, Green” value (foxtail, green; 62 g ai/ha) was 75 and the “Plant response rating: Foxtail, Green” value (foxtail, green; 125 g ai/ha) was 75. The “Plant response rating: Foxtail, Green” value (foxtail, green; 250 g ai/ha) was 85.
